# Measurements as given in ChEMBL document CHEMBL4354807, “Natural Product Albiziabioside A Conjugated with Pyruvate Dehydrogenase Kinase Inhibitor Dichloroacetate To Induce Apoptosis-Ferroptosis-M2-TAMs Polarization for Combined Cancer Therapy” (J Med Chem, 2019).
# Active and inactive are the calls of the source. No cut-off for these calls is given here.
# Tests used:
# [1] = Cytotoxicity against human HBMEC cells assessed as combination index after 72 hrs by MTT assay; assay type: cell-based
# [2] = Stability of compound in PBS at pH 7.4 and 37 degree C measured after 2 hrs by HPLC analysis; assay type: physicochemical; conditions: buffer, pH 7.4, 2 h
# MCF7 [3] = assay: Induction of ROS generation in human MCF7 cells assessed as ROS level at 2 uM after 24 hrs by DCFDA-fluorescence based flow cytometry (reference value: 6.57 %); assay type: functional
# 4T1 [4] = assay: Reversal of immunosuppression against mouse 4T1 cells implanted in BALB/c mouse assessed as growth inhibition of distal tumor at 2 mg/kg administered intratumorally every 2 days for 2 weeks measured after 14 days; assay type: functional, organism-based
# MCF7 [5] = assay: Induction of apoptosis in human MCF7 cells assessed as necrotic cells at 2 uM after 24 hrs by Annexin V-FITC/propidium iodide staining-based flow cytometric analysis (reference value: 0.10 %); assay type: functional
# [6] = Toxicity in BALB/c nude mouse xenografted with human MCF7 cells assessed as effect on kidney at 2 mg/kg, iv administered every 2 days for 2 weeks measured after 14 days by hematoxylin and eosin staining based histopathological analysis; assay type: organism-based; conditions: in vivo, 336 h
# MCF7 [7] = assay: Induction of apoptosis in human MCF7 cells assessed as upregulation of cytochrome C expression at 2 uM after 48 hrs by Western blot analysis relative to control; assay type: functional
# [8] = Toxicity in BALB/c nude mouse xenografted with human MCF7 cells assessed as effect on lung at 2 mg/kg, iv administered every 2 days for 2 weeks measured after 14 days by hematoxylin and eosin staining based histopathological analysis; assay type: organism-based; conditions: in vivo, 336 h
# MCF7 [9] = assay: Induction of mitochondrial dysfunction in human MCF7 cells assessed as cell population with intact mitochondrial membrane potential at 2 uM after 24 hrs by JC1 staining-based FACScalibur flow cytometry analysis (reference value: 97%); assay type: functional
# [10] = Selectivity index, ratio IC50 for cytotoxicity against human HBMEC cells assessed as reduction in cell viability after 72 hrs by MTT assay to IC50 for anticancer activity against mouse 4T1 cells assessed as reduction in cell viability after 72 hrs by MTT assay
# [11] = Selectivity index, ratio IC50 for cytotoxicity against human LO2 cells assessed as reduction in cell viability after 72 hrs by MTT assay to IC50 for anticancer activity against human MCF7 cells assessed as reduction in cell viability after 72 hrs by MTT assay; assay type: toxicity, cell-based; conditions: LO2 cells versus MCF7 cells, read-out: Ratio IC50
# HCT-116 = assay: Anticancer activity against human HCT116 cells expressing PDK assessed as reduction in cell viability after 72 hrs by MTT assay; assay type: functional, cell-based; conditions: HCT-116, 72 h
# Mus musculus [12] = assay: Modulation of tumor immunosuppressive activity in BALB/c mouse xenografted with mouse 4T1 cells assessed as increase in IL12 expression in serum administered intratumorally every other day for 14 days measured at 2 days post-last dose by ELISA; assay type: functional, organism-based
# [13] = Cytotoxicity against human HBMEC cells assessed as reduction in cell viability after 72 hrs by MTT assay; assay type: cell-based
# 4T1 [14] = assay: Reversal of immunosuppression against mouse 4T1 cells implanted in BALB/c mouse assessed as decrease in weight of distal tumor at 2 mg/kg administered intratumorally every 2 days for 2 weeks measured after 14 days; assay type: functional, organism-based
# MCF7 [15] = assay: Synergistic anticancer activity against human MCF7 cells overexpressing assessed as combination index after 72 hrs by MTT assay; assay type: functional
# Mus musculus [16] = assay: Modulation of tumor immunosuppressive activity in BALB/c mouse xenografted with mouse 4T1 cells assessed as decrease in IL10 expression in tumor administered intratumorally every other day for 14 days measured at 2 days post-last dose by ELISA; assay type: functional, organism-based
# [17] = Toxicity in BALB/c nude mouse xenografted with human MCF7 cells assessed as mouse death at 2 mg/kg, iv administered every 2 days for 2 weeks measured after 14 days; assay type: organism-based; conditions: in vivo, 336 h
# 4T1 [18] = assay: Induction of M2-TAM polarization in mouse 4T1 cells assessed as decrease in Arg1 protein level at 2 uM after 48 hrs by Western blot analysis relative to control; assay type: functional
# MCF7 [19] = assay: Cytotoxicity against human MCF7 cells assessed as cell death at 2 uM pretreated with Z-VAD-fmk followed by compound addition by MTT assay; assay type: functional, cell-based
# A-375 = assay: Anticancer activity against human A375 cells expressing PDK assessed as reduction in cell viability after 72 hrs by MTT assay; assay type: functional, cell-based; conditions: A-375, 72 h
# [20] = Toxicity in BALB/c nude mouse xenografted with human MCF7 cells assessed as effect on ALP level in blood at 2 mg/kg, iv administered every 2 days for 2 weeks measured after 14 days; assay type: organism-based; conditions: in vivo, 336 h
# MCF7 [21] = assay: Induction of metabolic reversal from aerobic glycolysis to oxidative phosphorylation in human MCF7 cells assessed as decrease in oxygen consumption rate at 2 uM pretreated for 6 hrs followed by oligomycin A addition after 25 mins followed by subsequent addition of FCCP after 50 mins followed by antimycin/rotenone addition after 80 mins by seahorse XF24 extracellular flux analyzer assay; assay type: functional, cell-based
# L02 = assay: Cytotoxicity against human LO2 cells assessed as combination index after 72 hrs by MTT assay; assay type: cell-based; conditions: l02, 72 h
# MCF7 [22] = assay: Anticancer activity against human MCF7 cells overexpressing PDK assessed as reduction in cell viability after 72 hrs by MTT assay; assay type: functional, cell-based; conditions: MCF7, 72 h
# [23] = Toxicity in BALB/c nude mouse xenografted with human MCF7 cells assessed as effect on heart at 2 mg/kg, iv administered every 2 days for 2 weeks measured after 14 days by hematoxylin and eosin staining based histopathological analysis; assay type: organism-based; conditions: in vivo, 336 h
# 4T1 [24] = assay: Induction of M2-TAM polarization in mouse 4T1 cells assessed as decrease in MRC1 mRNA expression at 2 uM after 48 hrs by Western blot analysis relative to control; assay type: functional
# MCF7 [25] = assay: Induction of ferroptosis in human MCF7 cells assessed as cell death at 2 uM pretreated with antioxidant vitamin E followed by compound treatment by MTT assay; assay type: functional, cell-based
# MCF7 [26] = assay: Inhibition of glycolysis in human MCF7 cells assessed as reduction in intracellular lactate level at 2 uM after 6 hrs by microplate reader assay; assay type: functional, cell-based
# [27] = Selectivity index, ratio IC50 for cytotoxicity against human HBMEC cells assessed as reduction in cell viability after 72 hrs by MTT assay to IC50 for anticancer activity against human A375 cells assessed as reduction in cell viability after 72 hrs by MTT assay
# MCF7 [28] = assay: Inhibition of glycolysis in human MCF7 cells assessed as reduction in extracellular lactate level at 2 uM after 6 hrs by microplate reader assay; assay type: functional, cell-based
# 4T1 [29] = assay: Synergistic anticancer activity against mouse 4T1 cells expressing assessed as combination index after 72 hrs by MTT assay; assay type: functional
# MCF7 [30] = assay: Antitumor activity against human MCF7 cells xenografted in BALB/c nude mouse assessed as suppression of tumor progression at 2 mg/kg, iv administered every two days for two weeks measured after 14 days relative to control; assay type: functional
# [31] = target: [Pyruvate dehydrogenase (acetyl-transferring)] kinase isozyme 1, mitochondrial (Homo sapiens) (UniProt Q15118); assay: Inhibition of PDK1 (unknown origin) expressed in human MCF7 cells using PDK tide as substrate measured after 90 mins in presence of ATP by ADP-Glo luminescent kinase assay
# Mus musculus [32] = assay: Modulation of tumor immunosuppressive activity in BALB/c mouse xenografted with mouse 4T1 cells assessed as increase in TNFalpha expression in serum administered intratumorally every other day for 14 days measured at 2 days post-last dose by ELISA; assay type: functional, organism-based
smiles,measurement,setting,value
CC1(C)CC[C@]2(C(=O)O)CC[C@]3(C)C(=CC[C@@H]4[C@@]5(C)CC[C@H](O[C@@H]6O[C@H](CO[C@@H]7OC[C@H](O)[C@H](O)[C@H]7O)[C@@H](O)[C@H](O)[C@H]6NC(=O)C(Cl)Cl)C(C)(C)[C@@H]5CC[C@]43C)[C@@H]2C1,CI,[1],1.41
same,Stability,[2],Stable
same,Activity,MCF7 [3],44.19%
same,Activity,4T1 [4],Active
same,Activity,MCF7 [5],4.86%
same,Activity,[6],Non-Toxic
same,fold change (FC),MCF7 [7],4.4
same,Activity,[8],Non-Toxic
same,Activity,MCF7 [9],53.38%
same,Ratio IC50,[10],29.16
same,selectivity ratio at 72 h,[11],124
same,IC50,HCT-116,3.87 µM
same,Activity,Mus musculus [12],Active
same,IC50,[13],38.2 µM
same,Activity,4T1 [14],Active
same,CI,MCF7 [15],0.03
same,Activity,Mus musculus [16],Active
same,Activity,[17],Non-Toxic
same,fold change (FC),4T1 [18],2.1
same,Activity,MCF7 [19],inactive
same,IC50,A-375,3.78 µM
same,Activity,[20],Non-Toxic
same,Activity,MCF7 [21],Active
same,CI,L02,2.13
same,IC50,MCF7 [22],0.43 µM
same,Activity,[23],Non-Toxic
same,fold change (FC),4T1 [24],3.4
same,Activity,MCF7 [25],inactive
same,inhibition,MCF7 [26],Active
same,Ratio IC50,[27],10.11
same,inhibition,MCF7 [28],Active
same,CI,4T1 [29],0.09
same,Activity,MCF7 [30],100%
same,inhibition,[31],Active
same,Activity,Mus musculus [32],Active
